Results from article PMC11013136, “Design, Synthesis, and Anti-Leukemic Evaluation of a Series of Dianilinopyrimidines by Regulating the Ras/Raf/MEK/ERK and STAT3/c-Myc Pathways” (Molecules, 2024).

How the values were obtained:
[1] = tested on: HEL cells; assay: Western blotting of cell cycle, apoptosis, Ras/Raf/MEK/ERK and STAT3/c-Myc proteins; assay type: cell-based; details: Western blot
Text: (§1) Cell cycle regulation is critical for cell differentiation and proliferation. To investigate whether H-120 affects the cell cycle of HEL, we treated HEL cells with various concentrations of H-120.
To study the effect of H-120 on apoptosis proteins, we treated HEL cells with various concentrations of H-120.
To assess whether the effect of H-120 on HEL cells is involved in the inactivation of Ras/Raf/MEK/ERK/MAPK signaling pathway, we tracked this pathway bottom-up in HEL cells treated with H-120 using Western blotting.
To examine the effect of H-120 on the p-STAT3 and c-Myc, we checked the p-STAT3 and c-Myc levels in HEL cells treated with H-120. […] STAT3 acts through its phosphorylation and enters nuclear. The nuclear–cytoplasmic separation experiment was conducted.
HEL cells were collected after 24 h of H-120 treatment and washed with PBS, and the supernatant was discarded. According to the instructions of the Nuclear and Cytoplasmic Protein Extraction Kit (Beyotime Biotechnology, Shanghai, China), we added cytoplasmic protein extraction reagent A equipped with PMSF (phenylmethanesulfonyl fluoride) and used vigorous vortexing at 2500 rpm for 5 s to suspend and disperse the cell precipitation entirely. After 15 min of an ice bath, we added cytoplasmic protein extraction reagent B. The sample was vigorously vortexed at 2500 rpm for 5 s, then centrifuged at 4 °C for 5 min at 12,000× g, and the supernatant was extracted to leave a precipitate. The supernatant was the cytoplasmic protein. For the precipitate, the […] protein extraction reagent equipped with PMSF was added immediately, mixed, and then placed on ice. The highest-speed vigorous vortex was performed for 20 s every 2 min for 30 min, followed by centrifugation at 12,000× g at 4 °C for 10 min. Finally, the supernatant was taken as the nuclear protein.
HEL cells after drug action were collected, added to and mixed with cell lysis buffer, and […] on ice for one hour before protein concentration was detected using a BCA (bicinchoninic acid) kit. Proteins (50 μg) were separated by sodium dodecyl sulfate-polyacrylamide gel electrophoresis and transferred to a PVDF (polyvinylidene fluoride) membrane ([…], Bio-Rad, Hercules, CA, USA) via wet transfer. Then, 5% bovine serum albumin closed the membrane for 1 h, and the membrane was washed three times with TBS (20 mM Tris-HCl) for 5 min each time. Membranes were allowed to incubate with the primary antibody overnight at 4 °C. The anti-rabbit antibody secondary antibody was incubated at room temperature for 2 h. Then, the membrane was washed with 1× TBST (20 mM Tris-HCl, 0.1% Tween 20) for 15 min. After washing, the fetal membrane was scanned with an infrared imaging scanner. β-actin was used as a loading control.

[2] = tested on: F-MuLV-induced leukemia mice; assay: F-MuLV-induced erythroleukemia mice; assay type: in vivo, BALB/c mice; details: for number of leukemic cells in the spleens (H&E staining): VCR 0.25 mg/kg, H-120 1-4 mg/kg intraperitoneally
Text: We used the F-MuLV-induced leukemia mice to determine the anti-leukemia activity of H-120. […] The effect of H-120 treatment is similar to that in the vincristine (VCR) treatment group (Figure 6A,C). […] The CD71 and Ter119 have been broadly used to reflect mice’s dynamic maturation of erythrocytes. We tested CD71 and Ter119 expression in spleen cells and bone marrow cells by using flow cytometry.
The NIH3T3 cells expressing the F-MuLV clone 57 vector were donated by Professor Ben-David Yaacov, Key Laboratory of Natural Product Chemistry, Chinese Academy of Sciences, Guizhou Province. In order to induce leukemia, BALB/c mice (male and females; Tongxin, Chongqing, China), aged one day, were administered a solitary intraperitoneal injection of F-MuLV. Then, infected neonates were weaned at 4 weeks and randomly divided into 6 groups: normal group (NC), model group (M), positive control group (VCR: 0.25 mg/kg), H-120 low dose group (H-120-L: 1 mg/kg), H-120 medium dose group (H-120-M: 2 mg/kg), and H-120 high dose group (H-120-H: 4 mg/kg). After 5 weeks of virus infection, mice were treated with H-120 intraperitoneally every other day for 3 weeks. The normal and model groups were given saline, and the control group was given vincristine intraperitoneally. Under the supervision of experienced staff, the leukemia mice were sacrificed humanely by cervical dislocation. Serum biochemical indexes of the mice were detected. The spleens of the mice were removed. A portion of the spleen was fixed in formaldehyde for 24 h, and paraffin was embedded and sliced. The effects of H-120 on the normal physiological structure of the spleen were observed by H&E staining. Then, part of the spleen tissue was ground and prepared into a single-cell suspension, which was stained with CD71, Ter119, CD4, CD8a, and B220 antibodies for 30 min, respectively. The expression of markers on the spleen cell surfaces of mice was analyzed by flow cytometry.

[3] = tested on: HEL cells; assay: Cell cycle analysis (PI, flow cytometry); assay type: cell-based; details: 0.125-1 μM, 24 h
Method: as §1
(§2) For the apoptosis detection assay, the logarithmically grown HEL cells were treated with H-120 solution (0.125 μM, 0.25 μM, 0.5 μM, and 1 μM) for 24 h, 48 h, and 72 h. Subsequently, the cells were collected and rinsed three times with pre-cooled PBS. Based on the instruction of the Annexin V-FITC apoptosis detection kit, the cells were resuspended in 50 μL of 1 × binding buffer and stained for 15 minutes. Then, the apoptosis rate was determined using flow cytometry (ACEA NovoCyte, San Diego, CA, United States). For cell cycle analysis, HEL cells were treated with the different concentrations of H-120 (0.125 μM, 0.25 μM, 0.5 μM, 1 μM) for 24 h. Cells were collected, fixed with pre-cooled 70% ethanol, and kept at 4 °C for 4 h before being transferred to −20 °C overnight. Cells were stained with 0.5 mL of PI (propidium iodide, 50 µg/mL), RNase (5 µg/mL) inhibitor, and Triton × 100 (0.5 µg/mL) for 10 min at room temperature in the dark and then analyzed by flow cytometry.

[4] = tested on: HEL cells; assay: MTT cell viability assay, HEL cells; assay type: cell-based; details: for IC50: Homo sapiens, HEL, 48 h
Method: (§3) To estimate the effects of N-Phenyl-2-pyrimidinamine derivatives (Figure 1A) on HEL, K562, and Jurkat cells, we treated these cells with the compounds at different concentrations (1–20 μM) for 48 h. […] H-121 could selectively impair the proliferation of HEL and Jurkat cells. H-123 blocked the proliferation of the Jurkat cells. Those four compounds had no toxicity to the HL7702 cell line.
(§4) To validate the effects of H-120 on the viability of HEL cells, we treated the cells with the compound at different concentrations (1–20 μM) for 24 h, 48 h, and 72 h. […] However, H-120 was not cytotoxic on normal HL7702 (IC50 > 20 μM) (Figure 1B). The morphology of HEL cells treated with H-120 gradually crumpled and appeared fragmented (Figure 1E).
(§5) The logarithmically grown HEL cells were seeded in a 96-well culture plate at a density of 8000 cells per well and treated with different concentrations of H-120 (0.125 μM, 0.25 μM, 0.5 μM, and 1 μM) or 0.1% DMSO (control). After 24 h, 48 h, and 72 h treatment, the cells were added to 10 μL of MTT reagent for 4 h, and then added to 100 μL of triple cleavage fluid (SDS 10 g, isobutanol 5 mL and 10M HCl 0.1 mL, dissolved with ddH2O into 100 mL solution). After using a microscope to observe the completely dissolved crystal, the cells’ optical absorbance value was measured at 570 nm using an enzyme-labeling instrument (BioTek, Winooski, VT, United States). Inhibition rate = (OD value of DMSO group-OD value of experimental group)/OD value of DMSO group × 100%.
The logarithmically grown HEL cells were collected and planted in 96-well plates at a density of 8000 cells per well. After the cell state was stabilized, HEL cells were treated with H-120 solution (0.125 μM, 0.25 μM, 0.5 μM, 1 μM), and then the OD value was measured at 570 nm in different periods of time. The growth curves were plotted.

[5] = tested on: HEL cells; assay: Annexin V-FITC/PI apoptosis detection by flow cytometry; assay type: cell-based; details: 1 μM
Text: (§6) Apoptosis plays a crucial role in impairing cancer cell viability. To determine whether the H-120 inhibiting HEL cell growth is caused by apoptosis, we applied HEL cells with different concentrations of H-120. […] To explore the mechanism of apoptosis, we used JC-1 staining to detect the effect of H-120 on mitochondrial membrane potential. […] The results confirmed that H-120 can induce HEL cell apoptosis by impairing mitochondria.
as §2, with “Cells were collected, fixed with pre-cooled 70% ethanol, and kept at 4 °C for 4 h before being transferred to −20 °C overnight.” left out

[6] = tested on: Jurkat cells; assay: MTT cell viability assay, Jurkat cells; assay type: cell-based; details: Homo sapiens, 48 h
Method: as §3, §5

[7] = tested on: HEL cells; assay: JC-1 mitochondrial membrane potential assay; assay type: cell-based; details: 0.125-1 μM, 48 h, flow cytometry
Method: as §6
Cells (2 × 10^5) were seeded in a 2 mL medium with different concentrations of H-120 (0.125 μM, 0.25 μM, 0.5 μM, 1 μM). After being treated with H-120 for 48 h, the cells were preincubated with JC-1 working solution for 20 min at 37 °C, 5% CO2. After incubation, the dye was removed, and the cells were washed two times with JC-1 [48].

[8] = tested on: K562 cells; assay: MTT cell viability assay, K562 cells; assay type: cell-based; details: Homo sapiens, 48 h
Method: as §3, §5

[9] = tested on: HEL cells; assay: Hoechst 33258 staining (DNA damage); assay type: cell-based; details: 0.125-1 μM, 24 h
Method: as §1
After subjecting HEL cells to H-120 solution (0.125 μM, 0.25 μM, 0.5 μM, 1μM) for 24 h, the cells were collected, resuspended, and washed with pre-cooled PBS. Subsequently, the cells were fixed, stained, and washed according to the instructions provided by the Apoptosis-Hoechst 33258 Staining Kit. To prevent fluorescence interference, an appropriate volume of anti-fluorescence quenching sealing solution was added to the cells. The cells were then placed on a spare slide, covered with a coverslip, and immediately observed and photographed using a Nikonfluorescence microscope.

[10] = tested on: HL7702 cells; assay: MTT cytotoxicity on normal hepatic cell line HL7702; assay type: cell-based; details: Homo sapiens, L02, 48 h
Method: as §3, §4, §5

Row | Compound | IC50 [6] | IC50 [8] | number of leukemic cells in the spleens (H&E staining) ([2]; vs model group) | IC50 [4] | IC50 [10] | also measured
1 | C#CC(=O)Nc1ccc(Nc2ncc(C)c(Nc3sccc3C(=O)NC)n2)cc1 [H-120, 2-[5-Methyl-2-(4-propynoylamino-phenylamino)-pyrimidin-4-ylamino]-thiophene-3-carboxylic acid methylamide] | 0.665 ± 0.02 µM | 2.34 ± 0.22 µM | decreased significantly | 0.148 ± 0.04 µM | > 20 µM | Bad, cleaved caspase-9, cleaved caspase-3 and cleaved PARP expression [1]: up-regulated considerably; Bcl-2 and Bcl-xL expression [1]: significantly down-regulated; expressions of Ras, phosphorylated Raf, MEK and ERK [1]: significantly reduce; levels of cell cycle proteins p-CDC25C and CyclinB1 ([1]; dose-dependent): decreased; p53 level ([1]; dose-dependent): up-regulated; p-STAT3 and c-Myc levels ([1]; dose-dependent): significantly down-regulated; effects on renal and cardiac functions (URA, CREA, UA, CK-MB) ([2]; erythroleukemia mice): no effects; proportions of CD4, CD8a and B220 cells in spleen ([2]; flow cytometry): increased significantly; mature erythrocytes CD71-Ter119+ in spleen cells and bone marrow cells ([2]; flow cytometry, vs model group): significantly increased; levels of liver index, ALT and AST ([2]; vs model group): significantly lower; spleen weight ([2]; vs model mice, H-120 1, 2, 4 mg/kg intraperitoneally every other day for 3 weeks): significantly declined; proportion of the G2/M phase in HEL cells [3]: increased; HEL cell proliferation ([4]; 24 h, 48 h and 72 h): prevented the HEL cell proliferation in a dose- and time-dependent manner; apoptosis rate of HEL cells ([5]; 48 h): 14.28%; apoptosis rate of HEL cells ([5]; 72 h): 36.45%; relative value of the JC-1 monomer [7]: significantly increased; DNA damage (Hoechst staining) [9]: caused DNA damage in a dose-dependent manner
2 | CC[C@]1(O)C[C@H]2CN(CCc3c([nH]c4ccccc34)[C@@](C(=O)OC)(c3cc4c(cc3OC)N(C=O)[C@H]3[C@@](O)(C(=O)OC)[C@H](OC(C)=O)[C@]5(CC)C=CCN6CC[C@]43[C@@H]65)C2)C1 [VCR, Vincristine, reference compound] | – | – | decreased significantly | – | – | –

Second part, led by results:

Row | IC50 [6] | IC50 [8] | Compound | number of leukemic cells in the spleens (H&E staining) ([2]; vs model group) | IC50 [4] | IC50 [10] | also measured
3 | 10.4 ± 0.238 µM | > 20 µM | C=CC(=O)Nc1ccc(Nc2ncc(C)c(Nc3sccc3C(=O)NC)n2)cc1 [H-121, 2-((2-((4-Acrylamidophenyl)amino)-5-methylpyrimidin-4-yl)amino)-N-methylthiophene-3-carboxamide] | – | 8.78 ± 0.45 µM | > 20 µM | –
4 | 1.63 ± 0.28 µM | 16.3 ± 1.11 µM | CNC(=O)c1ccccc1Nc1nc(Nc2ccc(Nc3c(NC45CC6CC(CC(C6)C4)C5)c(=O)c3=O)cc2)ncc1C(F)(F)F [H-122, 2-((2-((4-((2-(((1R,3R,5S)-Adamantan-1-yl)amino)-3,4-dioxocyclobut-1-en-1-yl)amino)phenyl)amino)-5-(trifluoromethyl)pyrimidin-4-yl)amino)-N-methylbenzamide] | – | 11.5 ± 0.53 µM | > 20 µM | –
5 | 5.2 ± 1.17 µM | > 20 µM | CNC(=O)c1ccsc1Nc1nc(Nc2ccc(Nc3c(NC45CC6CC(CC(C6)C4)C5)c(=O)c3=O)cc2)ncc1C(F)(F)F [H-123, 2-((2-((4-((2-(((1R,3R,5S)-Adamantan-1-yl)amino)-3,4-dioxocyclobut-1-en-1-yl)amino)phenyl)amino)-5-(trifluoromethyl)pyrimidin-4-yl)amino)-N-methylthiophene-3-carboxamide] | – | > 20 µM | > 20 µM | –
